Assay: Check for precipitation of crystal in 1:1 mixtures of oil solution and diethyl amino hydroxy benzoyl hexyl benzoate kept at 5° C.
Assay type: physicochemical
Design: key to Evaluation results 1 week / Evaluation results Following day / Evaluation results Same day: X: Evaluation results accompanied by an x in Table 2 indicate that crystal had precipitated at the applicable point in time
Settings: 1:1 by mass with diethyl amino hydroxy benzoyl hexyl benzoate, heated to 80° C., cooled, kept at 5° C.; checked after half a day
From the text: Evaluation results accompanied by an x in Table 2 indicate that crystal had precipitated at the applicable point in time.

Molecule | Evaluation results Same day
CCCCCCCC(=O)OCC(C)(C)COC(=O)CCCCCCC [Component 53, Neopentyl glycol dicaprylate] | X
CCCCCCCCOC(=O)OCCCCCCCC [Component 57, Dicapryl carbonate] | X
DPG [Component 22] | X

Other lines, results leading:

Evaluation results Same day | Molecule
X | CC(C)CCCC(C)CCCC(C)CCCCC(C)CCCC(C)CCCC(C)C (centres unmarked) [Component 26, Squalane]
X | OCC(O)CO [Component 31, Glycerin]
X | CCCCCCCCCCCCCCCC(=O)OC(C)C [Component 33, Isopropyl palmitate]
X | CCCCCCCCCCCCCC(=O)OCC(CCCCCCCC)CCCCCCCCCC (centres unmarked) [Component 34, Octyl dodecyl myristate]
X | COc1ccc(C(=O)c2ccccc2)c(O)c1 [Component 59, Benzophenone-3]
X | CCCCCCCCCCCCCCCCCCO [Component 61, Stearyl alcohol]
X | Cyclomethicone [Component 64]

Same assay, conditions: 1:1 by mass with diethyl amino hydroxy benzoyl hexyl benzoate, kept at 5° C.; checked after one day

Molecule | Evaluation results Following day
CC(C)CCCCCCCCCCOC(=O)CCCCCC(C)C [Component 17, Isotridecyl isononanate] | X
CCO [Component 18, Ethanol (99%)] | X
CCCCCCCCCCCCCCCCOC(=O)C(CC)CCCC (centres unmarked) [Component 19, Cetyl ethyl hexanoate] | X
CCCCCCCCCCC(CO)CCCCCCCC (centres unmarked) [Component 29, Octyl dodecanol] | X
CC(O)CCO (centres unmarked) [Component 32, 1,3-BG] | X
CC(C)CCCCCCCCCCCCCCCOC(=O)CC(O)C(=O)OCCCCCCCCCCCCCCCC(C)C (centres unmarked) [Component 47, Diisostearyl malate] | X
CCCCC(CC)C(=O)OCC(C)(C)COC(=O)C(CC)CCCC (centres unmarked) [Component 51, Neopentyl glycol diethyl hexanoate] | X
CCCCCCCCCCC(CCCCCCCC)COC(=O)C(C)O (centres unmarked) [Component 52, Octyl dodecyl lactate] | X
CCCCCCCCOCCCCCCCC [Component 58, Dioctyl ether] | X
DPG [Component 22] | X
Erythrityl triethyl hexanoate [Component 45] | X
Glycerin tri (capryl/caprate) [Component 28] | X
Sorbitan isostearate [Component 36] | X

Next, values leading:

Evaluation results Following day | Molecule
X | CCCCCCCCCCCCCCCC(=O)OCC(CC)CCCC (centres unmarked) [Component 20, Ethyl hexyl palmitate]
X | CCCCC(CC)C(=O)OCC(COC(=O)C(CC)CCCC)OC(=O)C(CC)CCCC (centres unmarked) [Component 21, Glycerin tri 2-ethyl hexanoate]
X | CC(C)CCCCCCOC(=O)CCCCCC(C)C [Component 25, Isononyl isononanate]
X | CCCCCCCC(=O)OCC(C)OC(=O)CCCCCCC (centres unmarked) [Component 30, Propylene glycol dicaprylate]
X | CCCCC(CC)C(=O)OCC(CC)(CO)COCC(CC)(COC(=O)C(CC)CCCC)COC(=O)C(CC)CCCC (centres unmarked) [Component 44, Ditrimethylol propane triethyl hexanoate]
X | CCCCC(CC)C(=O)OCC(COC(=O)C(CC)CCCC)OC(=O)C(CC)CCCC (centres unmarked) [Component 50, Triethyl hexanoin]
X | C12-15 alkyl benzoate [Component 62]
X | Diglyceryl tetraisostearate [Component 49]
X | Ditrimethylol propane (isostearate/sebacate) [Component 46]
X | Sorbitan sesquioleate [Component 35]

Same assay, conditions: 1:1 by mass with diethyl amino hydroxy benzoyl hexyl benzoate, kept at 5° C.; checked after one week

Evaluation results 1 week | Molecule
X | CCCCCCC(O)CCCCCCCCCCC(=O)OCC(CC)CCCC (centres unmarked) [Component 16, Octyl hydroxyl stearate (monomer)]
X | CCCCC(CC)COC(=O)/C=C/c1ccc(OC)cc1 (centres unmarked) [Component 56, Ethyl hexyl para-methoxy cinnamate]

Same assay, conditions: 1:1 by mass with diethyl amino hydroxy benzoyl hexyl benzoate, kept at 5° C.; checked after six months

Evaluation results 6 months | Molecule
◯ | Octyl hydroxyl stearate oligomer (dimmer) [Component 1]
◯ | Octyl hydroxyl stearate oligomer (heptamer) [Component 6]
◯ | Octyl hydroxyl stearate oligomer (hexamer) [Component 5]
◯ | Octyl hydroxyl stearate oligomer (pentamer) [Component 4]

Molecule | Evaluation results 6 months
Octyl hydroxyl stearate oligomer (tetramer) [Component 3] | ◯
Octyl hydroxyl stearate oligomer (trimer) [Component 2] | ◯

Same assay, conditions: summary of Table 2, 5° C.

precipitation of crystal / stability of the 1:1 mixture, in words | Molecule
crystal precipitated after one week | CCCCCCC(O)CCCCCCCCCCC(=O)OCC(CC)CCCC (centres unmarked) [Component 16, Octyl hydroxyl stearate (monomer)]

Assay: Low-temperature behaviour of octyl hydroxy stearate monomer and oligomers (clouding point, liquid state)
Assay type: physicochemical
Settings: not given
From the text: A monomer of octyl hydroxy stearate has problems in terms of stable dissolution of poorly soluble substances, while an octamer and above lead to poor self-condensing property of 12-hydroxy stearate and result in a broad distribution of molecular weight, which in turn causes unstable quality, solidification at temperatures below zero, and undesirable touch and other tactile senstations. For example, a monomer of octyl hydroxy stearate is a low-viscosity oil which is non-sticky and has a clean touch and also offers excellent oxidization stability. However, its clouding point is high, or at approx. 20° C., and thus crystal generates in the solution or the entire formulation solidifies in winter, resulting in markedly lower feeling of use and other problems such as the formulation not coming out of the container due to an increased viscosity. An octamer has similar problems. A dimer of octyl hydroxy stearate is structurally a monomer with one more molecule unit. However, it has substantially different chemical properties.

clouding point | Molecule
approx. 20 °C | CCCCCCC(O)CCCCCCCCCCC(=O)OCC(CC)CCCC (centres unmarked) [Component 16, Octyl hydroxyl stearate (monomer)]

Same assay, conditions: 5° C.

state at 5° C. | Molecule
remains permanently liquid | Octyl hydroxyl stearate oligomer (dimmer) [Component 1]

Assay: not given
Settings: solvent 2-ethyl hexyl para-methoxy cinnamate; cited from earlier work

Molecule | dissolves in 2-ethyl hexyl para-methoxy cinnamate
CCCCCCOC(=O)c1ccccc1C(=O)c1ccc(N(CC)CC)cc1O [diethyl amino hydroxy benzoyl hexyl benzoate] | 42%

Same assay, conditions: solvent cyclomethicone (volatile silicone); cited from earlier work

Molecule | dissolves in cyclomethicone
CCCCCCOC(=O)c1ccccc1C(=O)c1ccc(N(CC)CC)cc1O [diethyl amino hydroxy benzoyl hexyl benzoate] | 0.4%

Same assay, conditions: solvent octyl para-methoxy cinnamate; cited from earlier work

Molecule | dissolves in octyl para-methoxy cinnamate
CCCCCCOC(=O)c1ccccc1C(=O)c1ccc(N(CC)CC)cc1O [diethyl amino hydroxy benzoyl hexyl benzoate] | up to 42 percent by mass

From patent publication US8198335B2, “Cosmetic material” (Parahermosa Co., Ltd., priority 2009, dated 2012)
